{"source": "paper PMC5392334", "about": "“Discovery and characterization of a novel irreversible EGFR mutants selective and potent kinase inhibitor CHMFL-EGFR-26 with a distinct binding mode” (Oncotarget, 2017)", "key": {"ACVR2B": {"target": "T1, ACVR2B (Homo sapiens, UniProt Q13705)", "T1 construct": "purchased DiscoveRx KINOMEscan", "T1 sequence (Q13705 19-512)": "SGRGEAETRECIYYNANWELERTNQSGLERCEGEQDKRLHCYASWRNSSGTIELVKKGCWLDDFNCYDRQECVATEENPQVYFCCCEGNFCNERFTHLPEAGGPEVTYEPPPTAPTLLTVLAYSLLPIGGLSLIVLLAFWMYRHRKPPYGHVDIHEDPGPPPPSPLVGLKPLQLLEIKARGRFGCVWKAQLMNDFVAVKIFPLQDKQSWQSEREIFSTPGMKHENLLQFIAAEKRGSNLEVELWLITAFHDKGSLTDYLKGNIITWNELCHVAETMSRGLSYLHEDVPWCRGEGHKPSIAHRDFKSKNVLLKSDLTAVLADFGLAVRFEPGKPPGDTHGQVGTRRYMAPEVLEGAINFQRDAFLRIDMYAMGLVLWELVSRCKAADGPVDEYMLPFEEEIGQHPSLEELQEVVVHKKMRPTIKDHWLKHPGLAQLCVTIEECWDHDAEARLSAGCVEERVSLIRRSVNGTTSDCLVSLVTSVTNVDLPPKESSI", "assay": "KinomeScan", "format": "binding", "conditions": "read-out: % control"}, "BRK": {"target": "T2, BRK (Homo sapiens, UniProt Q13882)", "T2 construct": "purchased DiscoveRx KINOMEscan", "assay": "KinomeScan", "format": "binding", "conditions": "read-out: % control"}, "BTK [1]": {"target": "T3, BTK (Homo sapiens, UniProt Q06187)", "T3 construct": "purchased Invitrogen (SelectScreen service)", "assay": "KinomeScan", "format": "binding", "conditions": "read-out: % control"}, "CAMK2A": {"target": "T4, CAMK2A (Homo sapiens, UniProt Q9UQM7)", "T4 construct": "purchased DiscoveRx KINOMEscan", "assay": "KinomeScan", "format": "binding", "conditions": "read-out: % control"}, "CSF1R": {"target": "T5, CSF1R (Homo sapiens, UniProt P07333)", "T5 construct": "purchased DiscoveRx KINOMEscan", "T5 sequence (P07333 20-972)": "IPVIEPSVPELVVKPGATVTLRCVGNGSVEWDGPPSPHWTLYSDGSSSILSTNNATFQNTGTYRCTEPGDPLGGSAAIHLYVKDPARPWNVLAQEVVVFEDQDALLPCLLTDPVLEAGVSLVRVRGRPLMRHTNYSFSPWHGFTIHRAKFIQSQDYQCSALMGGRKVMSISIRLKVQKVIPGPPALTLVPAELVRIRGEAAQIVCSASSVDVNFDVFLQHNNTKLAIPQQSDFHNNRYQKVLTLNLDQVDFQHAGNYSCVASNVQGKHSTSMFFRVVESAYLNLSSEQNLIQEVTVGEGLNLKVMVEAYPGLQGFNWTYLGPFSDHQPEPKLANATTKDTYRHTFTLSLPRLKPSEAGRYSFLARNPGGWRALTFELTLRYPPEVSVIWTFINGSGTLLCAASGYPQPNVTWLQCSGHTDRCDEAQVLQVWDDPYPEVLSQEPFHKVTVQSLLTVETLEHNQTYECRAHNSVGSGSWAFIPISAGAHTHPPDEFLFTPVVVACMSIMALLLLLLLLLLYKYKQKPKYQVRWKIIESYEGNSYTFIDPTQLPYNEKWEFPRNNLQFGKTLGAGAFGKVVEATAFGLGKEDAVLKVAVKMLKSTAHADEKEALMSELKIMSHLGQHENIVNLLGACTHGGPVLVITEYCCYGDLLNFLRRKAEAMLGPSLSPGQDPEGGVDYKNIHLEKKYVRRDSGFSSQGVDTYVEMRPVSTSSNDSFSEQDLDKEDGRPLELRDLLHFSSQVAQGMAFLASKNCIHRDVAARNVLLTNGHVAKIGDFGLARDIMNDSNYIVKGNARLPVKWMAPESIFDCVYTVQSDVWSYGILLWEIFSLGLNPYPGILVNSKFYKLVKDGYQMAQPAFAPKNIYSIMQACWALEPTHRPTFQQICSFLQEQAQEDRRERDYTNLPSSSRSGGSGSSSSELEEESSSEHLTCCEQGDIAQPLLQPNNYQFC", "assay": "KinomeScan", "format": "binding", "conditions": "read-out: % control"}, "CSNK1A1": {"target": "T6, CSNK1A1 (Homo sapiens, UniProt P48729)", "T6 construct": "purchased DiscoveRx KINOMEscan", "assay": "KinomeScan", "format": "binding", "conditions": "read-out: % control"}, "CTK": {"target": "T7, CTK (Homo sapiens, UniProt P42679)", "T7 construct": "purchased DiscoveRx KINOMEscan", "assay": "KinomeScan", "format": "binding", "conditions": "read-out: % control"}, "DMPK2": {"target": "T8, DMPK2 (Homo sapiens, UniProt Q6DT37)", "T8 construct": "purchased DiscoveRx KINOMEscan", "assay": "KinomeScan", "format": "binding", "conditions": "read-out: % control"}, "DYRK1A": {"target": "T9, DYRK1A (Homo sapiens, UniProt Q13627)", "T9 construct": "purchased DiscoveRx KINOMEscan", "assay": "KinomeScan", "format": "binding", "conditions": "read-out: % control"}, "EGFR(G719C)": {"target": "T10, EGFR(G719C) (Homo sapiens, UniProt P00533, G719C)", "T10 construct": "purchased DiscoveRx KINOMEscan", "assay": "KinomeScan", "format": "binding", "conditions": "read-out: % control"}, "[2]": {"target": "T11, EGFR(L747-S752del, P753S) (Homo sapiens, UniProt P00533, DEL747-752/P753S)", "T11 construct": "purchased DiscoveRx KINOMEscan", "assay": "KinomeScan", "format": "binding", "conditions": "read-out: % control"}, "FLT3(K663Q)": {"target": "T12, FLT3(K663Q) (Homo sapiens, UniProt P36888, K663Q)", "T12 construct": "purchased DiscoveRx KINOMEscan", "assay": "KinomeScan", "format": "binding", "conditions": "read-out: % control"}, "IRAK3": {"target": "T13, IRAK3 (Homo sapiens, UniProt Q9Y616)", "T13 construct": "purchased DiscoveRx KINOMEscan", "assay": "KinomeScan", "format": "binding", "conditions": "read-out: % control"}, "KIT(V559D,V654A)": {"target": "T14, KIT(V559D,V654A) (Homo sapiens, UniProt P10721, V559D/V654A)", "T14 construct": "purchased DiscoveRx KINOMEscan", "assay": "KinomeScan", "format": "binding", "conditions": "read-out: % control"}, "LATS1": {"target": "T15, LATS1 (Homo sapiens, UniProt O95835)", "T15 construct": "purchased DiscoveRx KINOMEscan", "assay": "KinomeScan", "format": "binding", "conditions": "read-out: % control"}, "MEK1 [3]": {"target": "T16, MEK1 (Homo sapiens, UniProt Q02750)", "T16 construct": "purchased Invitrogen (SelectScreen service)", "assay": "KinomeScan", "format": "binding", "conditions": "read-out: % control"}, "MET(Y1235D)": {"target": "T17, MET(Y1235D) (Homo sapiens, UniProt P08581, Y1235D)", "T17 construct": "purchased DiscoveRx KINOMEscan", "assay": "KinomeScan", "format": "binding", "conditions": "read-out: % control"}, "MKK7": {"target": "T18, MKK7 (Homo sapiens, UniProt O14733)", "T18 construct": "purchased DiscoveRx KINOMEscan", "assay": "KinomeScan", "format": "binding", "conditions": "read-out: % control"}, "MLK2": {"target": "T19, MLK2 (Homo sapiens, UniProt Q02779)", "T19 construct": "purchased DiscoveRx KINOMEscan", "assay": "KinomeScan", "format": "binding", "conditions": "read-out: % control"}, "MYLK4": {"target": "T20, MYLK4 (Homo sapiens, UniProt Q86YV6)", "T20 construct": "purchased DiscoveRx KINOMEscan", "assay": "KinomeScan", "format": "binding", "conditions": "read-out: % control"}, "NEK5": {"target": "T21, NEK5 (Homo sapiens, UniProt Q6P3R8)", "T21 construct": "purchased DiscoveRx KINOMEscan", "assay": "KinomeScan", "format": "binding", "conditions": "read-out: % control"}, "NEK9": {"target": "T22, NEK9 (Homo sapiens, UniProt Q8TD19)", "T22 construct": "purchased DiscoveRx KINOMEscan", "assay": "KinomeScan", "format": "binding", "conditions": "read-out: % control"}, "p38-alpha": {"target": "T23, p38-alpha (Homo sapiens, UniProt Q16539)", "T23 construct": "purchased DiscoveRx KINOMEscan", "T23 sequence (Q16539 whole entry)": "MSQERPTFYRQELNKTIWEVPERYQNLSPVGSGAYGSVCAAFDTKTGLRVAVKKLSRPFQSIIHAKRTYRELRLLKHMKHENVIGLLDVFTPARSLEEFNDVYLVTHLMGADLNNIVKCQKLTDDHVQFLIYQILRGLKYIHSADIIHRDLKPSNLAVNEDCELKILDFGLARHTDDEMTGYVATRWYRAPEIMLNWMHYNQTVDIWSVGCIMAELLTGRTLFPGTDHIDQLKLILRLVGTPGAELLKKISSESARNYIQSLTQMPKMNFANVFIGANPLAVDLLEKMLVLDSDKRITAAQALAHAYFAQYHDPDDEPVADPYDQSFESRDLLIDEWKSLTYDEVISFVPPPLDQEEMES", "assay": "KinomeScan", "format": "binding", "conditions": "read-out: % control"}, "PIKFYVE": {"target": "T24, PIKFYVE (Homo sapiens, UniProt Q9Y2I7)", "T24 construct": "purchased DiscoveRx KINOMEscan", "assay": "KinomeScan", "format": "binding", "conditions": "read-out: % control"}, "PRKD1": {"target": "T25, PRKD1 (Homo sapiens, UniProt Q15139)", "T25 construct": "purchased DiscoveRx KINOMEscan", "T25 sequence (Q15139 whole entry)": "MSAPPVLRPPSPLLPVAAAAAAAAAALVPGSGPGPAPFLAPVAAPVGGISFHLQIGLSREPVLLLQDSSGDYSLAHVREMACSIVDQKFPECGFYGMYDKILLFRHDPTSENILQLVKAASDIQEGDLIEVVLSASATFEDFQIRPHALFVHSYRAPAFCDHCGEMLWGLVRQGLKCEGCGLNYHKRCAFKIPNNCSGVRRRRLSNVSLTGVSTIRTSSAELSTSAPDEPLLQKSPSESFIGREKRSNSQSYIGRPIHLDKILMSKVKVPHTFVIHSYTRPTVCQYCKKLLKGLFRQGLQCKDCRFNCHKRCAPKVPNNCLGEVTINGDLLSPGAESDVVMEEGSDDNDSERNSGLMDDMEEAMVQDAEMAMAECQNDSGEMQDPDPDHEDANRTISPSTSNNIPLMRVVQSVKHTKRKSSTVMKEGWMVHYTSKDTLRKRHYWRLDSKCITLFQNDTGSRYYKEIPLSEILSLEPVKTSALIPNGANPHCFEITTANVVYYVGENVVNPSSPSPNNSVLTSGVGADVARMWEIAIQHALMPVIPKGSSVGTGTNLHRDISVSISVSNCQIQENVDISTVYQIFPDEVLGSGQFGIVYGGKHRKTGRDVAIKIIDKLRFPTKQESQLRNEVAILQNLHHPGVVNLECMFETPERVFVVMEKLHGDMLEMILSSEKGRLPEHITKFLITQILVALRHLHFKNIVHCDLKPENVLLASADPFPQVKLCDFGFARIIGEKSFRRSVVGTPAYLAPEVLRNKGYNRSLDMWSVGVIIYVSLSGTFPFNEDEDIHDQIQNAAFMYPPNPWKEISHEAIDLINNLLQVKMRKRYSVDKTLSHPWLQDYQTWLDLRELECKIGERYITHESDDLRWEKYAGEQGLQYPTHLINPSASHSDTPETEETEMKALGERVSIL", "assay": "KinomeScan", "format": "binding", "conditions": "read-out: % control"}, "ROS1": {"target": "T26, ROS1 (Homo sapiens, UniProt P08922)", "T26 construct": "purchased DiscoveRx KINOMEscan", "T26 sequence (P08922 28-2347)": "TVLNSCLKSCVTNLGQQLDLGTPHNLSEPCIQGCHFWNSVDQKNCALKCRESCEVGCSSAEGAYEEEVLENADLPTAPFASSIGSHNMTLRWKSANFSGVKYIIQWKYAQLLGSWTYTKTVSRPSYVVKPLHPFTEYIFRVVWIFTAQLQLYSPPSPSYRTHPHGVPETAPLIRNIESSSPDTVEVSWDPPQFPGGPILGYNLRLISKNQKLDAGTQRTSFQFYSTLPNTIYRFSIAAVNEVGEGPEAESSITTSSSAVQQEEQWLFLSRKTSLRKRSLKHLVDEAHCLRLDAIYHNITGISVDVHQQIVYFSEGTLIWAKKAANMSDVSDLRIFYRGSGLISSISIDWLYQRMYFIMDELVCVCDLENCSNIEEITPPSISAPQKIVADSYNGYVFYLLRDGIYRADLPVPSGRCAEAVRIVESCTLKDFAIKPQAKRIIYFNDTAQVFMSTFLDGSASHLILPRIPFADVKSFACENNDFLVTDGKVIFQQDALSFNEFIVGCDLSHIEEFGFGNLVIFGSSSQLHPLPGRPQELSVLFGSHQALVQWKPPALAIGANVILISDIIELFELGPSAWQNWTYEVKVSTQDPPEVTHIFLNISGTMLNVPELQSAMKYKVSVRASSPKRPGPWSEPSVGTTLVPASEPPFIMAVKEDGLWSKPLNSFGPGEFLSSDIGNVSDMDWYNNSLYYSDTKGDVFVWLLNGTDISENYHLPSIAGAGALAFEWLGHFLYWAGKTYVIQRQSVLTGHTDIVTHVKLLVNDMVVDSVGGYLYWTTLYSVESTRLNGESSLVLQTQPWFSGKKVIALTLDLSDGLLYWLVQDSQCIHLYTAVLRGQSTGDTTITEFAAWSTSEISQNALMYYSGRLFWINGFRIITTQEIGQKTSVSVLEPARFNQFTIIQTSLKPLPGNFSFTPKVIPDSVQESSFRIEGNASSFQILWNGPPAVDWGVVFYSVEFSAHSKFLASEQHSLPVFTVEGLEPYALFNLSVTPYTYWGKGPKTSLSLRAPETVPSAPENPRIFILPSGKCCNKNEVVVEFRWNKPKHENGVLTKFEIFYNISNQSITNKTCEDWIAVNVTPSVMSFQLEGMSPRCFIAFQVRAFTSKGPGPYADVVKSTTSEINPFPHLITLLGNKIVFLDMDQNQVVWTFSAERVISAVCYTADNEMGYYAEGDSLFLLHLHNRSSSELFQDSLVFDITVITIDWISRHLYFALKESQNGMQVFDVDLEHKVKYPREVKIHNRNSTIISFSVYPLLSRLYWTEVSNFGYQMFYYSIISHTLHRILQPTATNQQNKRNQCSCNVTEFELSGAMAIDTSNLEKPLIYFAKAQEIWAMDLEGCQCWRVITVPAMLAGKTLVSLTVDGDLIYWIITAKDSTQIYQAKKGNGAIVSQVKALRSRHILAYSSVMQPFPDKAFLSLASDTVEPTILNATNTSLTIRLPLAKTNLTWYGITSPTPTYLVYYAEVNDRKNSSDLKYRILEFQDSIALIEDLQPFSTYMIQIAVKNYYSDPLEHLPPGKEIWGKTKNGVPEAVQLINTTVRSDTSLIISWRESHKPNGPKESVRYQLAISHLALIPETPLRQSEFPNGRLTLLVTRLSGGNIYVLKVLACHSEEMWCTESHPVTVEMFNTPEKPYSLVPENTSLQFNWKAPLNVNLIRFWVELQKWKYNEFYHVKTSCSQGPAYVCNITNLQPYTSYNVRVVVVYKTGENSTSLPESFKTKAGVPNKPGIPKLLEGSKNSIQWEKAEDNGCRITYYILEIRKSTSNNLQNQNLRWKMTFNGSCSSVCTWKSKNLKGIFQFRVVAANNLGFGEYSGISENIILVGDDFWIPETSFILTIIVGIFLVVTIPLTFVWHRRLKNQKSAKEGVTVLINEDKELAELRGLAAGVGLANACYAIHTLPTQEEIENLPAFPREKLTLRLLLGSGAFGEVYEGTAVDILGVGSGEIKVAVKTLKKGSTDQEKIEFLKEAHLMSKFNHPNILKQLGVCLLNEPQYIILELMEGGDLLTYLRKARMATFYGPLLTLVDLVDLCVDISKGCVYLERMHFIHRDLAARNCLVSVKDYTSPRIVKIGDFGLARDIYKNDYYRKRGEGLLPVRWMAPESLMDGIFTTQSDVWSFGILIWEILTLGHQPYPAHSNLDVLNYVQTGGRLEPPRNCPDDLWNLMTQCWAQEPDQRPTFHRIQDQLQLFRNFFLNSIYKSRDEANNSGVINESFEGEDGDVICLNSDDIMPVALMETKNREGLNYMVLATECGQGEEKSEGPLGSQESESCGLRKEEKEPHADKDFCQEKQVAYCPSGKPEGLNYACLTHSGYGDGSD", "assay": "KinomeScan", "format": "binding", "conditions": "read-out: % control"}, "STK16": {"target": "T27, STK16 (Homo sapiens, UniProt O75716)", "T27 construct": "purchased DiscoveRx KINOMEscan", "assay": "KinomeScan", "format": "binding", "conditions": "read-out: % control"}, "TAOK3": {"target": "T28, TAOK3 (Homo sapiens, UniProt Q9H2K8)", "T28 construct": "purchased DiscoveRx KINOMEscan", "assay": "KinomeScan", "format": "binding", "conditions": "read-out: % control"}, "[4]": {"target": "T29, TYK2(JH2domain-pseudokinase) (Homo sapiens, UniProt P29597)", "T29 construct": "TYK2(JH2domain-pseudokinase); purchased DiscoveRx KINOMEscan", "assay": "KinomeScan", "format": "binding", "conditions": "read-out: % control"}, "YSK1": {"target": "T30, YSK1 (Homo sapiens, UniProt O00506)", "T30 construct": "purchased DiscoveRx KINOMEscan", "assay": "KinomeScan", "format": "binding", "conditions": "read-out: % control"}, "YSK4": {"target": "T31, YSK4 (Homo sapiens, UniProt Q56UN5)", "T31 construct": "purchased DiscoveRx KINOMEscan", "assay": "KinomeScan", "format": "binding", "conditions": "read-out: % control"}, "Parental BaF3": {"test_system": "Parental BaF3", "assay": "Anti-proliferation, BaF3 isogenic cell lines (CellTiter-Glo)", "format": "cell-based", "conditions": "Mus musculus"}, "BMX": {"target": "T32, BMX (Homo sapiens, UniProt P51813)", "T32 construct": "purchased Invitrogen (SelectScreen service)", "assay": "Invitrogen SelectScreen biochemical assay", "from_the_text": "(§1) In order to better understand CHMFL-EGFR-26's selectivity, we then tested it in DiscoveRx's KinomeScan™ assay. […] Given the fact that KinomeScan™ is a binding assay and sometimes cannot truly reflect the compound inhibitory activity, we then used Invitrogen SelectScreen® assay to test these potential off-targets (Supplementary Table 2). […] This was not surprising because EGFR, JAK3, HER2, HER4 and TEC family kinases (BTK, BLK and BMX) all share a similar cysteine residue at the identical position analogous to Cys 797 in EGFR in the hinge binding area.\n(§2) www.impactjournals.com/oncotarget/ Oncotarget, Supplementary Materials 2017\n(§3) KinomeScan Profiling by invitrogen SelectScreen® assay\n(§4) (1 picture or pasted object on this page, not shown here)"}, "BTK [5]": {"target": "T3, BTK", "assay": "Invitrogen SelectScreen biochemical assay", "from_the_text": "as §1, §2, §3, §4"}, "HER4": {"target": "T33, HER4 (Homo sapiens, UniProt Q15303)", "T33 construct": "purchased Invitrogen (SelectScreen service)", "assay": "Invitrogen SelectScreen biochemical assay", "from_the_text": "as §1, §2, §3, §4"}, "JAK3": {"target": "T34, JAK3 (Homo sapiens, UniProt P52333)", "T34 construct": "purchased Invitrogen (SelectScreen service)", "assay": "Invitrogen SelectScreen biochemical assay", "from_the_text": "as §1, §2, §3, §4"}, "MEK1 [6]": {"target": "T16, MEK1", "assay": "Invitrogen SelectScreen biochemical assay", "from_the_text": "as §1, §2, §3, §4"}, "CHL": {"test_system": "CHL", "assay": "Anti-proliferation, normal cells (CellTiter-Glo)", "conditions": "Cricetulus griseus, 72 h", "method": "Cells were grown in 96-well culture plates (2500-3000/well). For adherent cell lines, compounds of various concentrations were added into the plates after cells were cultured for 12 hours. Cell proliferation was determined after treatment with compounds for 72 hours. Cell viability was measured using the CellTiter–Glo assay (Promega, USA) according to the manufacturer's instructions, and luminescence was measured in a multi-label reader (Envision, PerkinElmer, USA). Data were normalized to control groups (DMSO) and represented by the mean of three independent measurements with standard error <20%. GI50 values were calculated using Prism 5.0 (GraphPad Software, San Diego, CA)."}}, "note": "pIC50: −log10 of the molar value."}
{"smiles": "C=CC(=O)N1CCC[C@@H](n2nc(-c3ccc(OCc4cccc(C)n4)c(Cl)c3)c3c(N)ncnc32)C1", "note": "[CHMFL-EGFR-26]", "values": [{"measurement": "remaining binding at 1 µM", "setting": "ACVR2B", "value": 85, "unit": "%"}, {"measurement": "remaining binding at 1 µM", "setting": "BRK", "value": 26, "unit": "%"}, {"measurement": "remaining binding at 1 µM", "setting": "BTK [1]", "value": 0.45, "unit": "%"}, {"measurement": "remaining binding at 1 µM", "setting": "CAMK2A", "value": 99, "unit": "%"}, {"measurement": "remaining binding at 1 µM", "setting": "CSF1R", "value": 98, "unit": "%"}, {"measurement": "remaining binding at 1 µM", "setting": "CSNK1A1", "value": 100, "unit": "%"}, {"measurement": "remaining binding at 1 µM", "setting": "CTK", "value": 95, "unit": "%"}, {"measurement": "remaining binding at 1 µM", "setting": "DMPK2", "value": 28, "unit": "%"}, {"measurement": "remaining binding at 1 µM", "setting": "DYRK1A", "value": 100, "unit": "%"}, {"measurement": "remaining binding at 1 µM", "setting": "EGFR(G719C)", "value": 16, "unit": "%"}, {"measurement": "remaining binding at 1 µM", "setting": "[2]", "value": 20, "unit": "%"}, {"measurement": "remaining binding at 1 µM", "setting": "FLT3(K663Q)", "value": 97, "unit": "%"}, {"measurement": "remaining binding at 1 µM", "setting": "IRAK3", "value": 94, "unit": "%"}, {"measurement": "remaining binding at 1 µM", "setting": "KIT(V559D,V654A)", "value": 89, "unit": "%"}, {"measurement": "remaining binding at 1 µM", "setting": "LATS1", "value": 82, "unit": "%"}, {"measurement": "remaining binding at 1 µM", "setting": "MEK1 [3]", "value": 0.3, "unit": "%"}, {"measurement": "remaining binding at 1 µM", "setting": "MET(Y1235D)", "value": 55, "unit": "%"}, {"measurement": "remaining binding at 1 µM", "setting": "MKK7", "value": 2.5, "unit": "%"}, {"measurement": "remaining binding at 1 µM", "setting": "MLK2", "value": 80, "unit": "%"}, {"measurement": "remaining binding at 1 µM", "setting": "MYLK4", "value": 100, "unit": "%"}, {"measurement": "remaining binding at 1 µM", "setting": "NEK5", "value": 93, "unit": "%"}, {"measurement": "remaining binding at 1 µM", "setting": "NEK9", "value": 94, "unit": "%"}, {"measurement": "remaining binding at 1 µM", "setting": "p38-alpha", "value": 86, "unit": "%"}, {"measurement": "remaining binding at 1 µM", "setting": "PIKFYVE", "value": 75, "unit": "%"}, {"measurement": "remaining binding at 1 µM", "setting": "PRKD1", "value": 85, "unit": "%"}, {"measurement": "remaining binding at 1 µM", "setting": "ROS1", "value": 89, "unit": "%"}, {"measurement": "remaining binding at 1 µM", "setting": "STK16", "value": 100, "unit": "%"}, {"measurement": "remaining binding at 1 µM", "setting": "TAOK3", "value": 100, "unit": "%"}, {"measurement": "remaining binding at 1 µM", "setting": "[4]", "value": 97, "unit": "%"}, {"measurement": "remaining binding at 1 µM", "setting": "YSK1", "value": 20, "unit": "%"}, {"measurement": "remaining binding at 1 µM", "setting": "YSK4", "value": 67, "unit": "%"}, {"measurement": "pIC50", "setting": "Parental BaF3; Parental BaF3, Supplementary Table 3, read-out: IC50 (anti-proliferative)", "value": 5.05}, {"measurement": "GI50", "setting": "Parental BaF3; Parental BaF3, 72 hours, triplet testing", "value": "> 10000", "unit": "nM"}, {"measurement": "pIC50", "setting": "BMX", "value": 7.41}, {"measurement": "pIC50", "setting": "BTK [5]", "value": 7.79}, {"measurement": "pIC50", "setting": "HER4", "value": 8.27}, {"measurement": "pIC50", "setting": "JAK3", "value": 7.51}, {"measurement": "pIC50", "setting": "MEK1 [6]", "value": 6.88}, {"measurement": "GI50", "setting": "CHL", "value": "> 10000", "unit": "nM"}]}
